Measured values published in ChEMBL document CHEMBL4152349, “A Fragment-Derived Clinical Candidate for Antagonism of X-Linked and Cellular Inhibitor of Apoptosis Proteins: 1-(6-[(4-Fluorophenyl)methyl]-5-(hydroxymethyl)-3,3-dimethyl-1 H,2 H,3 H-pyrrolo[3,2- b]pyridin-1-yl)-2-[(2 R,5 …” (J Med Chem, 2018).
Active and inactive are the calls of the source. The calls are words filed in the database; no cut-off is given here.

Tests used:
[1] = molecular target: hERG (KCNH2) (Homo sapiens, UniProt Q12809); experiment: in vitro; conditions: CHO-K1 cells expressing human ERG
hERG (KCNH2), sequence (Q12809 whole entry): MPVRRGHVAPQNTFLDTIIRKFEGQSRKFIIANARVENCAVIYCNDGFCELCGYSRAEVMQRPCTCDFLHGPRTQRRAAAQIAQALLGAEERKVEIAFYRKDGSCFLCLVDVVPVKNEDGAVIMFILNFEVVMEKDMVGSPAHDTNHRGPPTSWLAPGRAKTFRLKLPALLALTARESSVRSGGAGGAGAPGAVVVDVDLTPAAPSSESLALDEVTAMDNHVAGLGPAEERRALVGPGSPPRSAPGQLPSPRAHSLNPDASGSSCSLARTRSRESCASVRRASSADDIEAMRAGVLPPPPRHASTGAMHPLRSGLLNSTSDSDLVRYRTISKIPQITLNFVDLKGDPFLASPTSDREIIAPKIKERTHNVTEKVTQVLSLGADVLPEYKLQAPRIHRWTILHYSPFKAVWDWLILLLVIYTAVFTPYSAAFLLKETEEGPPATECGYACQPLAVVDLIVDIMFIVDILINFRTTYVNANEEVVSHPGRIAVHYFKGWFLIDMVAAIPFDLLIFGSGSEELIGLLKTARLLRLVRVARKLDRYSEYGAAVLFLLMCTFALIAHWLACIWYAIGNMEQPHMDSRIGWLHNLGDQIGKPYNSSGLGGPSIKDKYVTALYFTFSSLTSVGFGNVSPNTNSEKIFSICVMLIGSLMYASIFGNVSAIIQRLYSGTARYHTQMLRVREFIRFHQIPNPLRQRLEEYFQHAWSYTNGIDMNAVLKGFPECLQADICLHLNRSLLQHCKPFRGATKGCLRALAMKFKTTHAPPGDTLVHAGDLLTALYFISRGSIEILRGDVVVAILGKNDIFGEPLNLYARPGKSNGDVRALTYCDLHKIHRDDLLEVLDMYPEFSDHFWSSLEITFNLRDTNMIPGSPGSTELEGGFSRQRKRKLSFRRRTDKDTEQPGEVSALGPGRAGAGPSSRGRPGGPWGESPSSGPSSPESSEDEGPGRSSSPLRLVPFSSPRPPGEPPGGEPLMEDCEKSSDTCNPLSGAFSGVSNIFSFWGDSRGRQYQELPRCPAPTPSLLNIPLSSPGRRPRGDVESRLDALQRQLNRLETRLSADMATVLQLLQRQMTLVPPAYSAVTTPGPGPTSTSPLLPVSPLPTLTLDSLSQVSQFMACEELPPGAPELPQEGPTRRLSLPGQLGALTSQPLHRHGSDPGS

[2] = molecular target: CYP3A4 (Homo sapiens, UniProt P08684); experiment: in vitro; conditions: human CYP3A4 supersomes
CYP3A4, sequence (P08684 whole entry): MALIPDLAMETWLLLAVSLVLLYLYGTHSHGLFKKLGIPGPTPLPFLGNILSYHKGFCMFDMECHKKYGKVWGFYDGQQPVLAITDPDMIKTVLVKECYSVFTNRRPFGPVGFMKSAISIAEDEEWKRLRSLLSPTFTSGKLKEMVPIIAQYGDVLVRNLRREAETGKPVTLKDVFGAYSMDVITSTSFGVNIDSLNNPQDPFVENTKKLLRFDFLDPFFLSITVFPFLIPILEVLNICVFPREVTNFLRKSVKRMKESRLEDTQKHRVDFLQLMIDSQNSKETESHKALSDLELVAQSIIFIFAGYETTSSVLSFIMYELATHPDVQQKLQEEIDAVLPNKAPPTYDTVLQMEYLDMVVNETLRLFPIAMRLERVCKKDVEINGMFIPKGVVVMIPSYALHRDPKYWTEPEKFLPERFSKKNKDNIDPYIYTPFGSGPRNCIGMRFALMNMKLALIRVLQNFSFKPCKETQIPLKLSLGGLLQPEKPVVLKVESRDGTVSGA

[3] = system: MDA-MB-231; experiment: cells; conditions: Homo sapiens, MDA-MB-231, 72 h
[4] = Chromatographic hydrophobicity index, log D of the compound at pH 7.4 by HPLC method; type: physicochemical; conditions: buffer
[5] = Oral bioavailability in Balb/c mouse at 10 mg/kg by UHPLC and ESI mass spectrometry; type: ADME, organism-based; conditions: in vivo
[6] = in vivo; conditions: cynomolgus monkey, po, 5 mg/kg
[7] = in vivo; conditions: cynomolgus monkey, iv, 1 mg/kg
[8] = in vivo; conditions: cynomolgus monkey, plasma, iv, 1 mg/kg
[9] = Plasma clearance in Balb/c mouse at 5 mg/kg, iv or 10 mg/kg, po by UHPLC and ESI mass spectrometry; type: ADME, organism-based
[10] = Cmax in Balb/c mouse at 10 mg/kg, po by UHPLC and ESI mass spectrometry; type: ADME, organism-based; design: dose 10 mg/kg, route oral; conditions: in vivo
[11] = Plasma clearance in Sprague-Dawley rat at 5 mg/kg, iv or 10 mg/kg, po by UHPLC and ESI mass spectrometry; type: ADME, organism-based
[12] = system: Cynomolgus monkey; experiment: Cardiotoxicity in cynomolgus monkey assessed as effect on QT interval at 100 mg/kg, po administered as single dose; type: toxicity, organism-based, Macaca fascicularis; conditions: in vivo
[13] = Volume of distribution at steady state in Balb/c mouse at 5 mg/kg, iv or 10 mg/kg, po by UHPLC and ESI mass spectrometry; type: ADME, organism-based; conditions: in vivo, read-out: Vdss
[14] = in vivo; conditions: cynomolgus monkey, po, 60 mg/kg
[15] = Volume of distribution at steady state in Sprague-Dawley rat at 5 mg/kg, iv or 10 mg/kg, po by UHPLC and ESI mass spectrometry; type: ADME, organism-based; conditions: in vivo, read-out: Vdss
[16] = Cmax in Sprague-Dawley rat at 10 mg/kg, po by UHPLC and ESI mass spectrometry; type: ADME, organism-based; design: dose 10 mg/kg, route oral; conditions: in vivo
[17] = Oral bioavailability in Sprague-Dawley rat at 10 mg/kg by UHPLC and ESI mass spectrometry; type: ADME, organism-based; conditions: in vivo
[18] = Cmax in cynomolgus monkey at 5 mg/kg, po by UHPLC and ESI mass spectrometry; type: ADME, organism-based, Macaca fascicularis; design: dose 5 mg/kg, route oral; conditions: in vivo
[19] = Drug level in human hepatocytes treated with 1-(6-(4-fluorobenzyl)-3,3-dimethyl-2,3-dihydro-1H-pyrrolo[3,2-b]pyridin-1-yl)-2-((2R,5R)-5-methyl-2-(((R)-3-methylmorpholino)methyl)piperazin-1-yl)ethanone at 10 uM up to 90 mins by LC-MS analysis; type: ADME, cell-based, Hepatocyte
[20] = Drug level in cynomolgus monkey hepatocytes treated with 1-(6-(4-fluorobenzyl)-3,3-dimethyl-2,3-dihydro-1H-pyrrolo[3,2-b]pyridin-1-yl)-2-((2R,5R)-5-methyl-2-(((R)-3-methylmorpholino)methyl)piperazin-1-yl)ethanone at 10 uM up to 90 mins by LC-MS analysis; type: ADME, cell-based, Macaca fascicularis, Hepatocyte
[21] = Drug level in CD-1 mouse hepatocytes treated with 1-(6-(4-fluorobenzyl)-3,3-dimethyl-2,3-dihydro-1H-pyrrolo[3,2-b]pyridin-1-yl)-2-((2R,5R)-5-methyl-2-(((R)-3-methylmorpholino)methyl)piperazin-1-yl)ethanone at 10 uM up to 90 mins by LC-MS analysis; type: ADME, cell-based, Hepatocyte
[22] = Drug level in tumor of human MDA-MB-231 cells xenografted Balb/c SCID mouse at 20 mg/kg, po administered as single dose measured up to 72 hrs by UPLC analysis; type: ADME, organism-based, Neoplasm; conditions: in vivo
[23] = system: Mus musculus; experiment: Reduction in cIAP1 level in tumor of Balb/c SCID mouse xenografted with human MDA-MB-231 cells at 20 mg/kg, po administered as single dose measured up to 72 hrs by MSD plate-based assay; type: functional, organism-based
[24] = system: MDA-MB-231; experiment: Antitumor activity against human MDA-MB-231 cells xenografted in Balb/c mouse assessed as tumor growth inhibition at 20 mg/kg, po qd after 1 to 22 days; type: functional, organism-based
[25] = system: MDA-MB-231; experiment: Antitumor activity against human MDA-MB-231 cells xenografted in Balb/c mouse assessed as tumor growth inhibition at 16 mg/kg, po qd after 1 to 22 days; type: functional, organism-based
[26] = system: Mus musculus; experiment: In vivo inhibition of XIAP interaction with SMAC in human MDA-MB-231 cells xenografted in Balb/c SCID mouse at 20 mg/kg, po administered as single dose measured up to 72 hrs by MSD plate-based assay; type: functional, organism-based
[27] = Drug metabolism in Sprague-Dawley rat hepatocytes assessed as 2-((R)-1-amino-3-((R)-3-methylmorpholino)propan-2-ylamino)-1-(6-(4-fluorobenzyl)-3,3-dimethyl-2,3-dihydro-1H-pyrrolo[3,2-b]pyridin-1-yl)ethanone formation at 10 uM up to 90 mins by LC-MS analysis; type: ADME, cell-based, Hepatocyte
[28] = Drug metabolism in Sprague-Dawley rat hepatocytes assessed as oxidation metabolite formation at 10 uM up to 90 mins by LC-MS analysis; type: ADME, cell-based, Hepatocyte
[29] = Cmax in Sprague-Dawley rat at 5 mg/kg, po by UHPLC and ESI mass spectrometry; type: ADME, organism-based; design: dose 5 mg/kg, route oral; conditions: in vivo
[30] = Stability in cynomolgus monkey liver microsomes at 10 uM up to 90 mins in presence of NADPH by LC/MS analysis; type: ADME, Macaca fascicularis, microsome
[31] = Drug metabolism in human hepatocytes assessed as oxidation metabolite formation at 10 uM up to 90 mins by LC-MS analysis; type: ADME, cell-based, Hepatocyte
[32] = Drug metabolism in cynomolgus monkey hepatocytes assessed as oxidation metabolite formation at 10 uM up to 90 mins by LC-MS analysis; type: ADME, cell-based, Macaca fascicularis, Hepatocyte
[33] = Drug metabolism in CD-1 mouse hepatocytes assessed as oxidation metabolite formation at 10 uM up to 90 mins by LC-MS analysis; type: ADME, cell-based, Hepatocyte
[34] = Permeability in human Caco2 cells at 10 uM after 1 hr; type: ADME, cell-based; conditions: Caco-2, read-out: permeability
[35] = Drug metabolism in Sprague-Dawley rat hepatocytes assessed as 1-(6-(4-fluorobenzyl)-3,3-dimethyl-2,3-dihydro-1H-pyrrolo[3,2-b]pyridin-1-yl)-2-((2S,5R)-2-((2-hydroxyethylamino)methyl)-5-methylpiperazin-1-yl)ethanone formation at 10 uM up to 90 mins by LC-MS analysis; type: ADME, cell-based, Hepatocyte
[36] = Plasma clearance in Sprague-Dawley rat at 1 mg/kg, iv or 5 mg/kg, po by UHPLC and ESI mass spectrometry; type: ADME, organism-based
[37] = system: Cynomolgus monkey; experiment: Plasma clearance in cynomolgus monkey at 1 mg/kg, iv or 5 mg/kg, po relative to liver blood flow; type: ADME, organism-based, Macaca fascicularis; conditions: in vivo
[38] = Volume of distribution at steady state in Sprague-Dawley rat at 1 mg/kg, iv or 5 mg/kg, po by UHPLC and ESI mass spectrometry; type: ADME, organism-based; conditions: in vivo, read-out: Vdss
[39] = Drug metabolism in Sprague-Dawley rat hepatocytes assessed as 2-((2S,5R)-2-(aminomethyl)-5-methylpiperazin-1-yl)-1-(6-(4-fluorobenzyl)-3,3-dimethyl-2,3-dihydro-1H-pyrrolo[3,2-b]pyridin-1-yl)ethanone formation at 10 uM up to 90 mins by LC-MS analysis; type: ADME, cell-based, Hepatocyte
[40] = Oral bioavailability in Sprague-Dawley rat at 5 mg/kg by UHPLC and ESI mass spectrometry; type: ADME, organism-based; conditions: in vivo

C[C@@H]1CN(CC(=O)N2CC(C)(C)c3nnc(Cc4ccc(F)cc4F)cc32)[C@@H](CN2Cc3c(F)cccc3C2=O)CN1
inhibition at 10 min, 30 µM [1]: 28% | half-life at 40 min, 1 µM [2]: > 70 min | IC50 [3]: 0.59 nM | chromatographic logD [4]: 2.7

C[C@@H]1CN(CC(=O)N2CC(C)(C)c3nnc(Cc4ccc(F)cc4)cc32)[C@@H](CN2Cc3ccccc3C2=O)CN1
inhibition at 10 min, 30 µM [1]: 12% | half-life at 40 min, 1 µM [2]: 38 min | IC50 [3]: 16 nM

C[C@@H]1CN(CC(=O)N2CC(C)(C)c3nnc(Cc4ccc(F)cc4F)cc32)[C@@H](CN2Cc3cc(F)ccc3C2=O)CN1
inhibition at 10 min, 30 µM [1]: 25% | half-life at 40 min, 1 µM [2]: 37 min | IC50 [3]: 1.9 nM | chromatographic logD [4]: 2.6

C[C@@H]1CN(CC(=O)N2CC(C)(C)c3ncc([C@@H](O)c4ccc(F)cc4)cc32)[C@@H](CN2[C@H](C)COC[C@H]2C)CN1
bioavailability [5]: 31% | bioavailability [6]: 13% | chromatographic logD [4]: 2.9

C[C@@H]1CN(CC(=O)N2CC(C)(C)c3nc(CO)c(Cc4ccc(F)cc4)cc32)[C@@H](CN2CCOC[C@H]2C)CN1 [ASTX-660]
Vd [7]: 6 L/kg | clearance [8]: 16 mL/min/kg | bioavailability [5]: 34% | clearance [9]: 41 mL/min/kg | Cmax [10]: 433 ng/mL | clearance [11]: 38 mL/min/kg | Activity [12]: Non-Toxic | bioavailability [6]: 12% | Vd [13]: 2.7 L/kg | bioavailability [14]: 50% | chromatographic logD [4]: 3.1 | Vd [15]: 9.3 L/kg | Cmax [16]: 117 ng/mL | bioavailability [17]: 29% | Cmax [18]: 137 ng/mL

C[C@@H]1COCCN1C[C@@H](CN)NCC(=O)N1CC(C)(C)c2ncc(Cc3ccc(F)cc3)cc21
Drug uptake [19]: Active | Drug uptake [20]: Active | Drug uptake [21]: Active

C[C@@H]1CN(CC(=O)N2CC(C)(C)c3nc(CO)c(Cc4ccc(F)cc4)cc32)[C@@H](CN2[C@H](C)COC[C@H]2C)CN1
chromatographic logD [4]: 3.5

C[C@@H]1CN(CC(=O)N2CC(C)(C)c3c2cc(Cc2ccc(F)cc2)c(=O)n3C)[C@@H](CN2[C@H](C)COC[C@H]2C)CN1
chromatographic logD [4]: 3.2

C[C@@H]1CN(CC(=O)N2CC(C)(C)c3nc(CO)c(Cc4ccc(F)cc4)cc32)[C@@H](CN2CCOC[C@H]2C)CN1.Cl.Cl
Drug uptake [22]: Active

C[C@@H]1CN(CC(=O)N2CC(C)(C)c3nc(CO)c(Cc4ccc(F)cc4)cc32)[C@@H](CN2CCOC[C@H]2C)CN1
Activity [23]: Active | TGI [24]: Active | TGI [25]: Active | Activity [26]: Active

C[C@@H]1CN(CC(=O)N2CC(C)(C)c3nnc(Cc4ccc(F)cc4F)cc32)[C@@H](CN2Cc3cc(C#N)ccc3C2=O)CN1
inhibition at 10 min, 30 µM [1]: 19% | half-life at 40 min, 1 µM [2]: 42 min | IC50 [3]: 5.2 nM | chromatographic logD [4]: 3

C[C@@H]1CN(CC(=O)N2CC(C)(C)c3cc(=O)n(Cc4ccc(F)cc4)cc32)[C@@H](CN2[C@H](C)COC[C@H]2C)CN1
chromatographic logD [4]: 2.4

C[C@@H]1CN(CC(=O)N2CC(C)(C)c3nnc(Cc4ccc(F)cc4F)cc32)[C@@H](CN2Cc3ccc(C#N)cc3C2=O)CN1
inhibition at 10 min, 30 µM [1]: 18% | half-life at 40 min, 1 µM [2]: 34 min | IC50 [3]: 14 nM | chromatographic logD [4]: 2.9

C[C@@H]1CN(CC(=O)N2CC(C)(C)c3[nH]c(=O)c(Cc4ccc(F)cc4)cc32)[C@@H](CN2[C@H](C)COC[C@H]2C)CN1
chromatographic logD [4]: 2.7

C[C@@H]1CN(CC(=O)N2CC(C)(C)c3ncc([C@H](O)c4ccc(F)cc4)cc32)[C@@H](CN2[C@H](C)COC[C@H]2C)CN1
bioavailability [5]: 31% | bioavailability [6]: 13%

CN[C@@H](C)C(=O)N[C@H](C(=O)N1CCC[C@H]1c1nc(C(=O)c2ccc(F)cc2)cs1)C1CCCCC1 [LCL-161]
IC50 [3]: 7.8 nM

C[C@@H]1CN(CC(=O)N2CC(C)(C)c3nnc(Cc4ccc(F)cc4F)cc32)[C@@H](CN2Cc3ccc(F)cc3C2=O)CN1
inhibition at 10 min, 30 µM [1]: 18% | half-life at 40 min, 1 µM [2]: 41 min | IC50 [3]: 2.9 nM | chromatographic logD [4]: 3.1

C[C@@H]1CN(CC(=O)N2CC(C)(C)c3ncc(Cc4ccc(F)cc4)cc32)[C@@H](CN)CN1
Drug uptake [19]: Active | Drug uptake [20]: Active | Drug uptake [21]: Active

C[C@@H]1CN(CC(=O)N2CC(C)(C)c3ncc(Cc4ccc(F)cc4)cc32)[C@@H](CNCCO)CN1
Drug uptake [19]: Active | Drug uptake [20]: Active | Drug uptake [21]: Active

C[C@@H]1CN(CC(=O)N2CC(C)(C)c3ncc(Cc4ccc(F)cc4)cc32)[C@@H](CN2CCOC[C@H]2C)CN1
Drug metabolism [27]: Metabolite_Notdetected | Vd [7]: 3.7 L/kg | Drug metabolism [28]: Metabolite_Notdetected | Cmax [29]: 47 ng/mL | Stability [30]: Stable | Drug metabolism [31]: Metabolite_Detected | clearance [8]: 17 mL/min/kg | Drug metabolism [32]: Metabolite_Detected | Drug metabolism [33]: Metabolite_Detected | Papp at 1 h, 10 µM [34]: 1.1 ×10⁻⁶ cm/s | Drug metabolism [35]: Metabolite_Notdetected | bioavailability [6]: 2% | clearance [36]: 26 mL/min/kg | CL [37]: < 50% | Vd [38]: 12 L/kg | Drug metabolism [39]: Metabolite_Notdetected | Cmax [18]: 22 ng/mL | bioavailability [40]: 24%
